Earlier results, collected in patent US11331392B2, “Biodegradable thermo-responsive polymers and uses thereof” (The Trustees of Columbia University in the City of New York, priority 2014, dated 2022).

System: endothelial and tumor cells

Compound: Cc1cc(O)ccc1O [methylhydroquinone (MHQ), methylhydroquinone]
- concentration range inhibiting growth of cells in culture: micromolar range
